Measured values taken from ChEMBL document CHEMBL1201862, “PubChem BioAssay data set” (2004).
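These data come from cells grown in 96-well plates and exposed to compound for 48 hours at five concentrations. The concentration for 50% growth inhibition is given as GI50.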 Activity calls are given as the source filed them. No stated cut-off is given here; in the data, active = GI50 up to about 1.1 µM and inactive = higher.

What was measured:
Experiment in all cases: growth of human tumour cells (NCI), 48 h
786-0 = tested on: 786-0
A498 = tested on: A498
A549 = tested on: A549
ACHN = tested on: ACHN
BT-549 = tested on: BT-549
CAKI-1 = tested on: CAKI-1
CCRF-CEM = tested on: CCRF-CEM
COLO 205 = tested on: COLO 205
DU-145 = tested on: DU-145
EKVX = tested on: EKVX
HCC 2998 = tested on: HCC 2998
HCT-15 = tested on: HCT-15
HL-60 = tested on: HL-60
HOP-62 = tested on: HOP-62
HT-29 = tested on: HT-29
Hs-578T = tested on: Hs-578T
IGROV-1 = tested on: IGROV-1
K562 = tested on: K562
KM12 = tested on: KM12
LOX IMVI = tested on: LOX IMVI
M14 = tested on: M14
MCF7 = tested on: MCF7
MDA-MB-231 = tested on: MDA-MB-231
MDA-MB-435 = tested on: MDA-MB-435
MDA-N = tested on: MDA-N
MOLT-4 = tested on: MOLT-4
Malme-3M = tested on: Malme-3M
NCI-H226 = tested on: NCI-H226
NCI-H23 = tested on: NCI-H23
NCI-H460 = tested on: NCI-H460
NCI-H522 = tested on: NCI-H522
NCI/ADR-RES = tested on: NCI/ADR-RES
OVCAR-3 = tested on: OVCAR-3
OVCAR-4 = tested on: OVCAR-4
OVCAR-5 = tested on: OVCAR-5
OVCAR-8 = tested on: OVCAR-8
PC-3 = tested on: PC-3
RPMI-8226 = tested on: RPMI-8226
RXF 393 = tested on: RXF 393
SF-268 = tested on: SF-268
SF-295 = tested on: SF-295
SF-539 = tested on: SF-539
SK-MEL-28 = tested on: SK-MEL-28
SK-MEL-2 = tested on: SK-MEL-2
SK-MEL-5 = tested on: SK-MEL-5
SK-OV-3 = tested on: SK-OV-3
SN12C = tested on: SN12C
SNB-19 = tested on: SNB-19
SNB-75 = tested on: SNB-75
SR = tested on: SR
SW-620 = tested on: SW-620
T47D = tested on: T47D
TK-10 = tested on: TK-10
U-251 = tested on: U-251
UACC-257 = tested on: UACC-257
UACC-62 = tested on: UACC-62
UO-31 = tested on: UO-31
HCT-116 = tested on: HCT-116
HOP-92 = tested on: HOP-92

Measured: GI50

Nc1ccc(-c2nc3ccccc3s2)cc1I
inactive: 786-0 43.9 µM | A498 28.6 µM | A549 > 78 µM | ACHN > 87.1 µM | BT-549 > 78 µM | CAKI-1 > 100 µM | CCRF-CEM 30.1 µM | COLO 205 36 µM | DU-145 > 100 µM | EKVX 14.9 µM | HCC 2998 5.06 µM | HL-60 24.2 µM | HOP-62 37.3 µM | HT-29 66.2 µM | Hs-578T > 100 µM | K562 39.2 µM | KM12 52.5 µM | LOX IMVI 44.8 µM | M14 81.8 µM | MDA-MB-231 > 69.7 µM | MDA-MB-435 97.9 µM | MDA-N > 100 µM | MOLT-4 28.4 µM | Malme-3M 99.3 µM | NCI-H23 64.9 µM | NCI-H460 38.5 µM | NCI-H522 31.1 µM | NCI/ADR-RES > 100 µM | OVCAR-4 > 7.93 µM | OVCAR-8 > 96.2 µM | PC-3 41.5 µM | RPMI-8226 > 84.1 µM | RXF 393 29.7 µM | SF-268 > 33.5 µM | SF-295 74.3 µM | SF-539 77.8 µM | SK-MEL-28 > 100 µM | SK-MEL-2 > 100 µM | SK-MEL-5 58.7 µM | SK-OV-3 > 65.6 µM | SN12C 35.6 µM | SNB-19 54.2 µM | SNB-75 41.9 µM | SR 42 µM | SW-620 > 92.7 µM | T47D 18.7 µM | U-251 34.4 µM | UACC-257 > 100 µM | UACC-62 > 73.6 µM | UO-31 14.2 µM
active: IGROV-1 0.0107 µM | MCF7 < 0.0116 µM | NCI-H226 0.221 µM | OVCAR-3 0.0614 µM | OVCAR-5 0.0817 µM | TK-10 0.0521 µM
44.3 µM: HCT-15

C[N+]1(CCC(=O)c2ccco2)CC2CCC(CC2)C1 (stereo not given)
> 100 µM: HCT-15
inactive: 786-0 > 100 µM | A498 > 100 µM | A549 > 100 µM | ACHN > 100 µM | BT-549 > 100 µM | CAKI-1 > 100 µM | COLO 205 > 100 µM | DU-145 > 100 µM | EKVX > 100 µM | HCT-116 > 100 µM | HOP-92 > 100 µM | HT-29 > 100 µM | Hs-578T > 100 µM | IGROV-1 > 100 µM | K562 > 100 µM | KM12 > 100 µM | LOX IMVI > 100 µM | M14 > 100 µM | MCF7 > 100 µM | MDA-MB-231 > 100 µM | MDA-MB-435 > 100 µM | MDA-N > 100 µM | MOLT-4 > 100 µM | Malme-3M > 100 µM | NCI-H226 > 100 µM | NCI-H23 > 100 µM | NCI-H460 > 100 µM | NCI-H522 > 100 µM | NCI/ADR-RES > 100 µM | OVCAR-3 > 100 µM | OVCAR-4 > 100 µM | OVCAR-5 > 100 µM | OVCAR-8 > 100 µM | PC-3 > 100 µM | RPMI-8226 > 100 µM | RXF 393 > 100 µM | SF-268 > 100 µM | SF-295 > 100 µM | SF-539 > 100 µM | SK-MEL-28 > 100 µM | SK-MEL-2 > 100 µM | SK-MEL-5 > 100 µM | SN12C > 100 µM | SNB-19 > 100 µM | SNB-75 > 100 µM | SR > 100 µM | SW-620 > 100 µM | T47D > 100 µM | TK-10 > 100 µM | U-251 > 100 µM | UACC-257 > 100 µM | UACC-62 > 100 µM | UO-31 > 100 µM

Cc1onc(-c2c(F)cccc2Cl)c1C(=O)N[C@@H]1C(=O)N2[C@@H]1SC(C)(C)[C@@H]2C(=O)O
inactive: 786-0 > 100 µM | A498 > 100 µM | A549 > 100 µM | ACHN > 100 µM | BT-549 > 100 µM | CAKI-1 > 100 µM | COLO 205 > 100 µM | DU-145 > 100 µM | EKVX > 100 µM | HCT-116 > 100 µM | HOP-62 > 100 µM | HOP-92 > 100 µM | HT-29 > 100 µM | Hs-578T 44 µM | IGROV-1 > 100 µM | K562 > 100 µM | KM12 > 100 µM | M14 > 100 µM | MCF7 > 100 µM | MDA-MB-231 > 100 µM | MDA-MB-435 > 100 µM | MDA-N > 100 µM | Malme-3M > 100 µM | NCI-H226 > 100 µM | NCI-H23 > 100 µM | NCI-H460 > 100 µM | NCI-H522 > 100 µM | NCI/ADR-RES > 100 µM | OVCAR-3 > 100 µM | OVCAR-4 > 100 µM | OVCAR-5 > 100 µM | OVCAR-8 > 100 µM | PC-3 > 100 µM | RPMI-8226 > 100 µM | RXF 393 > 100 µM | SF-268 > 100 µM | SF-295 > 100 µM | SF-539 > 100 µM | SK-MEL-28 > 100 µM | SK-MEL-2 > 100 µM | SK-MEL-5 > 100 µM | SK-OV-3 > 100 µM | SN12C > 100 µM | SNB-19 > 100 µM | SNB-75 > 100 µM | SR > 100 µM | SW-620 > 100 µM | T47D > 100 µM | TK-10 > 100 µM | U-251 > 100 µM | UACC-257 > 100 µM | UACC-62 > 100 µM | UO-31 24.5 µM
> 100 µM: HCT-15
